Laboratory results: patent US7053219B2, “Isoxazolopyridone derivatives and their use” (Banyu Pharmaceutical Co. Ltd., priority 2001, dated 2006)

Molecular target: T1, rat metabotropic glutamic acid receptor 7a (Rattus norvegicus, UniProt P35400)
T1 construct: expressed in transfected cells
Test: Metabotropic glutamic acid receptor-antagonistic effect (Test Method 1, [Ca2+]i by FLIPR)
Assay type: cell-based
Settings: CHO cells stably expressing rat metabotropic glutamic acid receptor 7a and Gα15, agonist 0.5 mM L-AP4, test compound given 5 minutes before agonist, [Ca2+]i with Fluo-3AM
Source text: (Test Method 1) Metabotropic Glutamic Acid Receptor-Antagonistic Effect:
Using LIPOFECTAMINE (by Gibco BRL), CHO cells were transfected with a CDNA of rat metabotropic glutamic acid receptor 7a, which is described in J. Biol. Chem., N. Okamoto et al., Vol. 269, pp. 1231–1236, 1994, to give a cell strain capable of stably expressing rat metabotropic glutamic acid receptor 7a. The metabotropic glutamic acid receptor 7a-transfected CHO cells were further transfected with a Gα15 cDNA, which is describedin J. Biol. Chem., S. Offermanns, M. I. Simon, Vol. 270, pp. 15175–15180, 1995, to give a cell strain capable of stably expressing rat metabotropic glutamic acid receptor 7a and Gα15. The CHO cells capable of stably expressing metabotropic glutamic acid receptor 7a and Gα15 were incubated along with Fluo-3AM (final concentration 4 μM) at 37° C. for 1 hour, and then washed 4 times with an assay buffer (1×Hanks' salt with 2.5 mM probenecid and 20 mM HEPES (N-2-hydroxyethylpiperazine-N′-2-ethanesulfonic acid), and the resulting cells were assayed for [Ca^2+]i. For the determination of [Ca^2+]i, used was a fluorimetric imaging plate reader (FLIPR by Molecular Device). Concretely, using an agonist, 0.5 mM L-AP4, the capacity of the antagonistic substance was measured.
The Hanks' salt was prepared by 10-fold diluting a Hanks' balanced solution (Gibuco BRL 14065-056 10×). […]

T1 sequence (P35400 35-915): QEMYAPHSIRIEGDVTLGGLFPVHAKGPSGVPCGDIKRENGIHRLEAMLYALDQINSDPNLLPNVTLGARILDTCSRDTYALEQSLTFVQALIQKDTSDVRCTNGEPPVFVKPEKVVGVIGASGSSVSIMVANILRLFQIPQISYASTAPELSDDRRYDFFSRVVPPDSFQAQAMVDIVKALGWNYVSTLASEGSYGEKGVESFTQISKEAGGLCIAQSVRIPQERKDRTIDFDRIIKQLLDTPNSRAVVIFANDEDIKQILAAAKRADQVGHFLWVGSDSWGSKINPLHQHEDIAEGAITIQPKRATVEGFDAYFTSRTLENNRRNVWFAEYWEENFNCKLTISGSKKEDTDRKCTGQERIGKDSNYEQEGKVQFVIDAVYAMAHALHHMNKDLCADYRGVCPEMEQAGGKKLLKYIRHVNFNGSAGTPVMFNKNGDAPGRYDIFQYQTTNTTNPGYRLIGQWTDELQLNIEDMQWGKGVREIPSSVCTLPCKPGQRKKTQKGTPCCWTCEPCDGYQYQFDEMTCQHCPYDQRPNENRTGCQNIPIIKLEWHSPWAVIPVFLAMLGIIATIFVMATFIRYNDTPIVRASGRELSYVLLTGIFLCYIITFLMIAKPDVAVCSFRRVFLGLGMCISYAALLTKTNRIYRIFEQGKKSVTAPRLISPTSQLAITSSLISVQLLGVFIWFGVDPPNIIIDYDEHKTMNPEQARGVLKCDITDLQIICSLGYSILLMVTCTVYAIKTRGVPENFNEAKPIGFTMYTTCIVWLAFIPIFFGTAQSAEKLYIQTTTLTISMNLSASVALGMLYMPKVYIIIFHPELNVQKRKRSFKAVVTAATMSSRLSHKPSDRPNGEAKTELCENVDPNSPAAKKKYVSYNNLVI

Compound | IC50
COc1ccccc1-c1noc2cc(-c3ccccc3)n(C)c(=O)c12 [Production Example 8, 5-methyl-3-(2-methoxyphenyl)-6-phenylisoxazolo[4,5c]pyridin-4(5H)-one] | 7.65 nM
Cn1c(-c2cccnc2)cc2onc(-c3ccncc3)c2c1=O [Production Example 32, 5-methyl-6-pyridin-3-yl-3-pyridin-4-yl-isoxazolo[4,5-c]-pyridin-4(5H)-one] | 10.4 nM
